pIC50: −log10 of the molar value. Counter-ions that a name gives are not always drawn. Like-named read-outs stand apart in the source and are kept apart here.
What was measured:
recombinant human MAO-B = target: T1, recombinant human MAO-B (Homo sapiens, UniProt P27338); assay: Inhibition of MAO-B activity, colorimetric; assay type: biochemical; conditions: for Specificity for SSAO vs. MAO-B: ratio IC50 MAO-B to IC50 SSAO
T1 construct: purchased BD Biosciences (MA, USA)
T1 sequence (P27338 1-520): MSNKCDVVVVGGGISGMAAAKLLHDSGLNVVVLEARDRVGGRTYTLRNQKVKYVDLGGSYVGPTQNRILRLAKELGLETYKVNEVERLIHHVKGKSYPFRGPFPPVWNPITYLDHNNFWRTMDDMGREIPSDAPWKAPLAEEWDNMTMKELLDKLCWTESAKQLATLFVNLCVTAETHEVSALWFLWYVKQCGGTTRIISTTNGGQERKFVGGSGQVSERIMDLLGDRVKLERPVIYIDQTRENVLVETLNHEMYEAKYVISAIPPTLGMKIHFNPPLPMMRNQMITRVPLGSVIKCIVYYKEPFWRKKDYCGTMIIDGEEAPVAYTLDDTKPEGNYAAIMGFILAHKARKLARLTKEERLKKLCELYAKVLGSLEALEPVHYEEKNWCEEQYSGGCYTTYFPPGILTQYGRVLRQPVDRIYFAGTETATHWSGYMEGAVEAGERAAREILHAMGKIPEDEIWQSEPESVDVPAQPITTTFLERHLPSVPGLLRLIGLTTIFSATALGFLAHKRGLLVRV
Method: (§1) The specificity of the different SSAO inhibitors was tested by determining their ability to inhibit MAO-A and MAO-B activities in vitro. Recombinant human MAO-A and human MAO-B enzymes were obtained from BD Biosciences (MA, USA). […] A pre-determined amount of inhibitor diluted in 0.2 M potassium phosphate buffer, pH 7.6, was added to each well, if required. […] Controls lacked inhibitor. The following agents were then added to a final reaction volume of 200 μl in 0.2 M potassium phosphate buffer, pH 7.6: 0.04 mg/ml of MAO-A or 0.07 mg/ml MAO-B enzyme, 15 μl of 10 mM tyramine substrate (for MAO-A), or 15 μl 100 mM benzylamine substrate (for MAO-B), and 50 μl of freshly made chromogenic solution (as above). The plates were incubated for 60 min at 37° C. The increase in absorbance, reflecting MAO activity, was measured at 490 nm using microplate spectrophotometer (Power Wave 40, Bio-Tek Inst.). Inhibition was presented as percent inhibition compared to control after correcting for background absorbance and IC50 values calculated using GraphPad Prism software.

recombinant human MAO-A = target: T2, recombinant human MAO-A (Homo sapiens, UniProt P21397); assay: Inhibition of MAO-A activity, colorimetric; assay type: biochemical; conditions: for Specificity for SSAO vs. MAO-A: ratio IC50 MAO-A to IC50 SSAO
T2 construct: purchased BD Biosciences (MA, USA)
T2 sequence (P21397 1-527): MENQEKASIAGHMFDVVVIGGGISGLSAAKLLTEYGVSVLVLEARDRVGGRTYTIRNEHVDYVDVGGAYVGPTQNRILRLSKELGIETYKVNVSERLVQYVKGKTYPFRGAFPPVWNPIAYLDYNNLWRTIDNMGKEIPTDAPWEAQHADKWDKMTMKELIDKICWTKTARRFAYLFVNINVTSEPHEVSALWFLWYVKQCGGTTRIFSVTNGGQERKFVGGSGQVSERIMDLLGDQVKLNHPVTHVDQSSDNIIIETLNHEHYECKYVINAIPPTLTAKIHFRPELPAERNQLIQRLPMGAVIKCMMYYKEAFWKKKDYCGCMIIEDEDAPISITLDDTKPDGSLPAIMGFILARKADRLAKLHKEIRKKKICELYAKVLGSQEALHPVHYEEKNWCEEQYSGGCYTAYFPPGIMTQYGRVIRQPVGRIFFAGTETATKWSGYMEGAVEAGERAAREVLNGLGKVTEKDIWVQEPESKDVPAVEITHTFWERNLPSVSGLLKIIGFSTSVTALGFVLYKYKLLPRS
Method: as §1

[1] = in vivo
[2] = tyramine substrate, no pre-incubation, read-out: MAO-A Inhibitory Activity IC50

Row | Structure (SMILES) | pIC50 (recombinant human MAO-B) | Specificity for SSAO vs. MAO-B (recombinant human MAO-B) | pIC50 (recombinant human MAO-A) | Specificity for SSAO vs. MAO-A (recombinant human MAO-A) | bioavailability after intravenous and intraperitoneal administration [1] | pIC50 (recombinant human MAO-A; [2])
1 | C=C(CNN)c1ccccc1 [Example 2, Hydrochloride] | 4.00 | 2,900 | 3.65 | 6,400 | readily bioavailable | 
2 | C=C(CNN)c1ccc(F)cc1.Cl [Example 8, N-[2-(4′-fluorophenyl)-allyl]-hydrazine Hydrochloride] | 4.09 | 2,500 |  | 69 | readily bioavailable | 5.66
3 | Cl.NNC/C(=C/F)c1ccccc1 [Example 10, (E)-1-fluoro-2-phenyl-3-hydrazinopropene Hydrochloride] | 6.19 | 10 |  | 43 | readily bioavailable | 5.55

Source: patent US20050096360A1, “Inhibitors of semicarbazide-sensitive amine oxidase (SSAO) and VAP-1 mediated adhesion useful for treatment of diseases” (priority 2003, published 2005)
